According to US9920069B2, “Compounds for treatment of fluoroquinolone-resistant bacteria” (The Board of Trustees of the University of Illinois, priority 2014, dated 2018):
In brackets after ≈: the same amount, converted by molar mass. Like-named read-outs stand apart in the source and are kept apart here.

Legend:
[1] = tested on: S. aureus 29213 (WT GyrA and WT ParC); assay: microbe, parasite or virus in culture; format: cell-based; conditions: Staphylococcus aureus; WT GyrA and WT ParC; read-out: MIC against S. aureus 29213
Protocol: (§1) Susceptibility testing was performed in triplicate using the microdilution broth method as outlined by the Clinical and Laboratory Standards Institute CLSI^52. MH broth was used.

physchem [2] = conditions: organic solvent or mixture, thermodynamic from solid
physchem [3] = conditions: for Solubility in pH 7.4 PBS: three replicates ± SEM
Protocol: Enough PBS was added to make a 1 mg/mL solution. Compounds were then assessed by LC-MS and compared to a calibration curve to determine the solubility. […] Data shown is from three independent replicates±SEM. […] Between DMSO additions, the vial was vortexed and sonicated.
The compound was vortexed for ˜30 seconds before being placed into a bath sonicator (Cole Parmer, ultrasonic cleaner) for 1 h. […] The tubes were vortexed again for 30 s before being centrifuged at maximum speed (13,000×g) for 10 minutes. The supernatant was then filtered through a 0.22 μm syringe filter (Millipore Millex MP). […] Three independent replicates of each compound were performed. A calibration curve for each compound was generated from 1-400 μM by dissolving the compound in DMSO and making dilutions of the stock in DMSO. […] The concentration of the samples was calculated based on the calibration curves.

[4] = Pharmacokinetic assessment, serum by HPLC; format: in vivo, C57BL/6 mice; conditions: mouse serum
Protocol: FIG. 13. Pharmacokinetic analysis of DNM, DNM-2, and DNM-3. C57/BL6 mice were treated with 50 mg kg^−1 DNM, DNM-2, or DNM-3 via oral gavage. After the indicated time points (15, 30, 60, 120, 240, and 480 min), mice were sacrificed and the serum concentrations of DNM, DNM-2, and DNM-3 was determined by HPLC.
The animal studies (PK, in vivo toxicity and in vivo efficacy) were carried out in strict accordance with the recommendations in the Guide for the Care and Use of Laboratory Animals of the National Institutes of Health. […] In these studies, 10-12 week old female C57BL/6 mice purchased from Charles River were used. DNM, DNM-2, and DNM-3 were formulated as slurries at 8.3 mg mL^−1 in 25% Cremophor RH40/water (v/v). Before beginning the pharmacokinetic assessment, mice were first tested for their ability to tolerate the DNM, DNM-2, and DNM-3 at 50 mg kg^−1 (p.o.). […] At specified time points, mice were sacrificed and blood was collected, centrifuged, and the serum was frozen at −80° C. until analysis. The proteins in a 50 μL aliquot of serum were precipitated by the addition of 50 μL of acetonitrile and the sample was centrifuged to remove the proteins. Serum concentrations of DNM, DNM-2, and DNM-3 were determined by HPLC. PK parameters were determined using GraphPad Prism Version 5.00 for Windows.

[5] = tested on: MRSA clinical isolate SAU.494; assay: microbe, parasite or virus in culture; format: cell-based, S. aureus; conditions: Staphylococcus aureus
Protocol: as §1

[6] = tested on: MRSA clinical isolate SAU.2996; assay: MIC, microdilution broth; format: cell-based, S. aureus; conditions: Staphylococcus aureus, MRSA, read-out: MIC
Protocol: as §1

[7] = tested on: MRSA clinical isolate SAU.446; assay: MIC, microdilution broth; format: cell-based, S. aureus; conditions: Staphylococcus aureus
Protocol: as §1

[8] = tested on: MRSA clinical isolate SAU.3021; assay: MIC, microdilution broth; format: cell-based, S. aureus; conditions: Staphylococcus aureus, MRSA, read-out: MIC
Protocol: as §1

[9] = tested on: MRSA clinical isolate SAU.3025; assay: MIC, microdilution broth; format: cell-based, S. aureus; conditions: Staphylococcus aureus
Protocol: as §1

[10] = tested on: MRSA clinical isolate SAU.555; assay: MIC, microdilution broth; format: cell-based, S. aureus; conditions: Staphylococcus aureus
Protocol: as §1

[11] = tested on: MRSA clinical isolate SAU.669; assay: MIC, microdilution broth; format: cell-based, S. aureus; conditions: Staphylococcus aureus
Protocol: as §1

[12] = tested on: MRSA clinical isolate SAU.419; assay: MIC, microdilution broth; format: cell-based, S. aureus; conditions: Staphylococcus aureus, MRSA, read-out: MIC
Protocol: as §1

[13] = tested on: MRSA clinical isolate SAU.491; assay: microbe, parasite or virus in culture; format: cell-based, S. aureus; conditions: Staphylococcus aureus
Protocol: as §1

[14] = tested on: MRSA clinical isolate SAU.496; assay: microbe, parasite or virus in culture; format: cell-based, S. aureus; conditions: Staphylococcus aureus
Protocol: as §1

[15] = tested on: MRSA clinical isolate SAU.709; assay: microbe, parasite or virus in culture; format: cell-based, S. aureus; conditions: Staphylococcus aureus
Protocol: as §1

[16] = tested on: MRSA clinical isolate SAU.710; assay: microbe, parasite or virus in culture; format: cell-based, S. aureus; conditions: Staphylococcus aureus
Protocol: as §1

[17] = tested on: MRSA clinical isolate SAU.493; assay: microbe, parasite or virus in culture; format: cell-based, S. aureus; conditions: Staphylococcus aureus
Protocol: as §1

[18] = tested on: MRSA clinical isolate SAU.495; assay: microbe, parasite or virus in culture; format: cell-based, S. aureus; conditions: Staphylococcus aureus
Protocol: as §1

[19] = tested on: MRSA clinical isolate SAU.708; assay: microbe, parasite or virus in culture; format: cell-based, S. aureus; conditions: Staphylococcus aureus
Protocol: as §1

[20] = tested on: MRSA clinical isolate SAU.492; assay: microbe, parasite or virus in culture; format: cell-based, S. aureus; conditions: Staphylococcus aureus
Protocol: as §1

[21] = tested on: MRSA clinical isolate SAU.489; assay: microbe, parasite or virus in culture; format: cell-based, S. aureus; conditions: Staphylococcus aureus
Protocol: as §1

[22] = tested on: MRSA clinical isolate SAU.1118; assay: MIC, microdilution broth; format: cell-based, S. aureus; conditions: Staphylococcus aureus
Protocol: as §1

[23] = tested on: MRSA clinical isolate SAU.3024; assay: MIC, microdilution broth; format: cell-based, S. aureus; conditions: Staphylococcus aureus
Protocol: as §1

human topoisomerase II = biological target: T1, human topoisomerase II (Homo sapiens, UniProt P11388); assay: Human topoisomerase decatenation assay; format: biochemical; conditions: lowest inhibiting / highest without significant inhibition
T1 construct: purchased Inspiralis
Protocol: The decatenation assay was performed with the Human Topo II Decatenation Assay Kit (Inspiralis) according to the manufacturer's instructions with minor modifications. First, a master mix was made containing 2 μL 10× assay buffer (500 mM Tris.HCl, pH 7.5, 1250 mM NaCl, 100 mM MgCl2, 50 mM DTT, 1000 μg/mL albumin), 0.67 μL 30 mM ATP, 1.34 μL 0.1 ng/μL kDNA, and 14.3 μL of nuclease free water per sample is made. DMSO or 30× compound is added to a 0.5 mL Eppendorf tube (0.67 μL per tube). The master mix is then added to each tube (18.3 μL per tube). Finally, 1 U of human topoisomerase (1 μL of 1 U/μL stock) is added to each tube for a final volume of 20 μL. The tubes are then incubated at 37° C. for 30 min. Reactions are stopped by the addition of 20 μL of 24:1 chloroform:isoamyl alcohol and 20 μL of stop dye (40% sucrose, 1 mM EDTA, 100 mM TrisHCl pH 7.5, 0.5 μg/mL bromophenol blue). Samples were run on 1% agarose gels containing 0.5 μg/mL ethidium bromide for 1 h at 110V or until the dye front was approximately halfway down the gel. Gels were imaged on a Molecular Imager Gel Doc XR+ (Biorad).

[24] = tested on: K. pneuomoniae, S. aureus, or M. tuberculosis; conditions: mice infected with various bacteria; cited from earlier work
[25] = subcutaneously, orally, or by IP injection; cited from earlier work

T1 sequence (P11388 whole entry): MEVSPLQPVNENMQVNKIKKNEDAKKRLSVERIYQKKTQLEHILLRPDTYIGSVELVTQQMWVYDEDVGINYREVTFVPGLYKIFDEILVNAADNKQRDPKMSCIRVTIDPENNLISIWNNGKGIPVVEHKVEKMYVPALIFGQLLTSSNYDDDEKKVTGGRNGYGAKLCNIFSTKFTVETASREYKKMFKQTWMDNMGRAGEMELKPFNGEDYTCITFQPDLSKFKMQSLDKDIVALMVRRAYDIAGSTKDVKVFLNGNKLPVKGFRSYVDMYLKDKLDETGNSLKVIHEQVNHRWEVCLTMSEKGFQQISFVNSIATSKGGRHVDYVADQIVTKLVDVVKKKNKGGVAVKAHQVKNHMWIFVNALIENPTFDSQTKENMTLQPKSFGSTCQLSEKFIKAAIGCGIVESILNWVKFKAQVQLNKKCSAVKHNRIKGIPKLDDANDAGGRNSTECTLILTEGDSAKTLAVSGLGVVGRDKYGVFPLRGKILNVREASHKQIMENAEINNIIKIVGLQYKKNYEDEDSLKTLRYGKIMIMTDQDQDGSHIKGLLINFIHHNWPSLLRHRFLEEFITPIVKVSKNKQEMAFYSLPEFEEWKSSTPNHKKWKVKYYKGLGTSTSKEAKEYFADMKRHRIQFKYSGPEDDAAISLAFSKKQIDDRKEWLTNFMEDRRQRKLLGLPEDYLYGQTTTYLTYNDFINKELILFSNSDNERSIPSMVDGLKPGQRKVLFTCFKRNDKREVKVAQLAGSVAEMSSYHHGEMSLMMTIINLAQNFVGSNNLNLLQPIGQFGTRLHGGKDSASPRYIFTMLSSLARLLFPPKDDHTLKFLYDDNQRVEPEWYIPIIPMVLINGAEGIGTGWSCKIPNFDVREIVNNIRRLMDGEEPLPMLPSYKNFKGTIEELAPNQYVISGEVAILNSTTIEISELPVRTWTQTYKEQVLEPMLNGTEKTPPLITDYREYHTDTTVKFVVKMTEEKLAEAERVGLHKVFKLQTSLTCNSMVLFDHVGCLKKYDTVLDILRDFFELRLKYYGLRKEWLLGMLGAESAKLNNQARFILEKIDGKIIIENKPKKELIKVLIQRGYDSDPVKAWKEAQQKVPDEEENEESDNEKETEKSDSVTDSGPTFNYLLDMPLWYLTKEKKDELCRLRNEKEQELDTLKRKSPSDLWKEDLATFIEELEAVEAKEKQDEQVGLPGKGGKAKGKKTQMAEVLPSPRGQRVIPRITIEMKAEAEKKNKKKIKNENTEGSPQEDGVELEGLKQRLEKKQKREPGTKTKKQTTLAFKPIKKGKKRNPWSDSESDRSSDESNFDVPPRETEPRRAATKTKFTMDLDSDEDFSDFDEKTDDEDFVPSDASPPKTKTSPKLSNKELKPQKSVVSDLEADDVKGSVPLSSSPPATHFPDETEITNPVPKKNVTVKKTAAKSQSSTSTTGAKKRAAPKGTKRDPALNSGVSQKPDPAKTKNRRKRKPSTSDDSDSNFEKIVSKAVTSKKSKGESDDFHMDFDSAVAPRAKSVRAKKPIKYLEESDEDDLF

Cc1cc(=O)n2c3c(c4c(cc13)c(C)cc(=O)n4CC(C)(C)C)OC2 [Compound 12]
MIC [1]: 32 µg/mL (≈ 94.6 µM) | solubility (physchem [2]): 38.7 mM (≈ 13100 µg/mL)

CCc1cc(=O)n(C)c2c3c4c(cc12)c(CC)cc(=O)n4CO3 [Compound 13]
MIC [1]: > 32 µg/mL | solubility (physchem [2]): 5.2 mM (≈ 1610 µg/mL) | Solubility in pH 7.4 PBS (physchem [3]): 48 μM

CCCc1cc(=O)n(C)c2c3c4c(cc12)c(CCC)cc(=O)n4CO3 [Compound 14]
MIC [1]: > 32 µg/mL | solubility (physchem [2]): 18.3 mM (≈ 6190 µg/mL) | solubility at 1 h (physchem [3]; pH 7.4, aqueous buffer, thermodynamic from solid): < 0.001 mM

CCCCn1c(=O)cc(CCC)c2cc3c(CCC)cc(=O)n4c3c(c21)OC4 [Compound 15]
MIC [1]: > 32 µg/mL | solubility (physchem [2]): 4.2 mM (≈ 1600 µg/mL)

CCc1cc(=O)n2c3c(c4c(cc13)c(C)cc(=O)n4C)OC2 [DNM-3]
MIC [1]: 8 µg/mL (≈ 27 µM) | solubility (physchem [2]): 1.3 mM (≈ 385 µg/mL) | Solubility in pH 7.4 PBS (physchem [3]): 27 μM | AUC ([4]; 50 mg kg^−1 oral dose): 4000 ng·h/mL | Cmax / peak serum concentration ([4]; 50 mg kg^−1 oral dose): 1260 ng/mL | Cmax ([4]; 50 mg kg^−1 oral dose, read-out: Cmax / peak serum concentration): 4.3 µM | AUC ([4]; 50 mg kg^−1 oral gavage): 4000 ng·h/mL | Cmax ([4]; 50 mg kg^−1 oral gavage): 1260 ng/mL | Tmax ([4]; 50 mg kg^−1 oral gavage): 1.1 h | t1/2 ([4]; 50 mg kg^−1 oral gavage): 1.2 h

CO[C@@H]1[C@@H](OC(N)=O)[C@@H](O)[C@H](Oc2ccc3c(O)c(NC(=O)c4ccc(O)c(CC=C(C)C)c4)c(=O)oc3c2C)OC1(C)C [Novo, Novobiocin]
MIC ([5]; read-out: MIC): 0.125 µg/mL (≈ 0.204 µM) | MIC [6]: 0.5 µg/mL (≈ 0.816 µM) | MIC [7]: 0.5 µg/mL (≈ 0.816 µM) | MIC [8]: 0.25 µg/mL (≈ 0.408 µM) | MIC [9]: 0.25 µg/mL (≈ 0.408 µM) | MIC [10]: 0.25 µg/mL (≈ 0.408 µM) | MIC [11]: 0.5 µg/mL (≈ 0.816 µM) | MIC [12]: 0.25 µg/mL (≈ 0.408 µM)

CN[C@H](CC(C)C)C(=O)N[C@H]1C(=O)N[C@@H](CC(N)=O)C(=O)N[C@H]2C(=O)N[C@H]3C(=O)N[C@H](C(=O)N[C@H](C(=O)O)c4cc(O)cc(O)c4-c4cc3ccc4O)[C@H](O)c3ccc(c(Cl)c3)Oc3cc2cc(c3O[C@@H]2O[C@H](CO)[C@@H](O)[C@H](O)[C@H]2O[C@H]2C[C@](C)(N)[C@H](O)[C@H](C)O2)Oc2ccc(cc2Cl)[C@H]1O [VANC, vancomycin, reference compound]
MIC [1]: 1 µg/mL (≈ 0.69 µM) | MIC [13]: 2 µg/mL (≈ 1.38 µM) | MIC [14]: 1 µg/mL (≈ 0.69 µM) | MIC [15]: 1 µg/mL (≈ 0.69 µM) | MIC [16]: 2 µg/mL (≈ 1.38 µM) | MIC [17]: 1 µg/mL (≈ 0.69 µM) | MIC [18]: 2 µg/mL (≈ 1.38 µM) | MIC [19]: 2 µg/mL (≈ 1.38 µM) | MIC [20]: 1 µg/mL (≈ 0.69 µM) | MIC [21]: 2 µg/mL (≈ 1.38 µM) | MIC [5]: 1 µg/mL (≈ 0.69 µM) | MIC [6]: 1 µg/mL (≈ 0.69 µM) | MIC [22]: 2 µg/mL (≈ 1.38 µM) | MIC [8]: 1 µg/mL (≈ 0.69 µM) | MIC [23]: 2 µg/mL (≈ 1.38 µM)

COc1cccc2c1C(=O)c1c(O)c3c(c(O)c1C2=O)C[C@@](O)(C(=O)CO)C[C@@H]3O[C@H]1C[C@H](N)[C@H](O)[C@H](C)O1 [doxorubicin, reference compound]
concentration inhibiting human topoisomerase II (human topoisomerase II): 3 µM

Cc1cc(=O)n2c3c(c4c(cc13)c(CO)cc(=O)n4C)OC2 [nybomycin]
activity in infected mice [24]: no activity | tolerability in mice [25]: well tolerated
